Results on ten compounds are retold here after US10894948B2, “Resetting pluripotent stem cells” (CAMBRIDGE ENTERPRISE LIMITED, priority 2014, dated 2021).

The structures appear in SMILES notation. “Also recorded” adds a separate entry of the source.

In assay [1] the test system is reset cells and conventional PSC. Description: Oxygen consumption rate (SeaHorse extracellular flux). Type of assay: cell-based, human. The following applies: injected during assay. How it is done:
A. Oxygen consumption rate (OCR). Measurements obtained using a SeaHorse Extracellular Flux analyser.
Oxygen consumption was measured using an XF^e24 Analyzer (SeaHorse Bioscience) according to the manufacturer's protocol. In brief, SeaHorse plates were pre-treated by coating with laminin and 80,000 cells were seeded on each well the night before the experiment. Culture media were exchanged for XF Base Medium (SeaHorse bioscience) supplemented with 2 mM pyruvate and 20 mM glucose with an adjusted pH of 7.4 and cells incubated at 37° C. in atmospheric CO2 for one hour. Oligomycin (2 μM), FCCP ([…]), Antimycin (1 μM) and Rotenone (1 μM) were injected during assay (XF cell mito stress test kit, Seahorse Bioscience). Mitochondria were stained with Mito Tracker Green FM (final concentration 50 nM, Life Technologies) or Tetramethylrhodamine, ethyl ester (TMRE, final concentration 20 nM, Life Technologies) in the relevant medium for 10 minutes and analysed by confocal microscopy.

Assay [2] deals with reset iH9-EOS cells. Kind of assay: Culture of reset cells in t2iL with Ro-31-8425 replacing Gö6983. The class given is cell-based, human. The following applies: 0.1 μM in t2iL, 25 days (7 passages). How it is done: FIG. 41 Bright field and fluorescence images of reset iH9-EOS cells after culture for 25 days (7 passages) in […] with Ro-31-8425 (0.1 μM) replacing Gö6983.
The subject of assay [3] is reset H9 cells. Description: Propagation of reset cells in 2iL upon DOX withdrawal. Type of assay: cell-based, human. To be noted: 5 μM added to 2iL upon DOX withdrawal. As to the method:
B. PKC inhibitor Gö6983 maintains the reset state in the absence of transgene expression. Upon DOX withdrawal cells in 2iL degenerated. […] Note that intrinsic fluorescence of Gö produces a faint red background signal.
To induce resetting, transfected PSC were dissociated with trypsin and replated as single cells in the presence of ROCK inhibitor. Doxycycline (DOX, 1 μM) was added the next day and 24 h later medium was changed to N2B27 medium (Ndiff227, StemCells Inc., SCS-SF-NB-02) with 1 μM PD0325901 (PD03), human LIF (prepared in-house), DOX and either 3 μM CHIR99021 (2iL+DOX) or 1 μM CHIR99021 (t2iL+DOX). Medium was changed every day. Cells were split every five to seven days after dissociation to single cells with Accutase (Life Technologies) for 10 minutes. Around two weeks after DOX induction, cells were transferred to t2iL+5 μM PKC inhibitor Gö6983 (Sigma-Aldrich) (t2iL+Gö). Reset cells cultured in t2iL+Gö were also passaged every five to seven days as single cells. Cells transferred to t2iL+Gö proliferate slowly for the initial couple of passages after withdrawal of DOX. Cells were maintained on MEF feeders throughout.
These cultures expressed OCT4 (FIG. 8) and expanded continuously, although proliferation was reduced and morphology less consistent compared to DOX-maintained cells.

In assay [4] the test system is reset cells. Kind of assay: Feeder-free culture of reset cells on Matrigel or Laminin 511-E8. The following applies: Gö reduced to 2 μM, ROCKi added prior to passaging. The class given is cell-based, human. As to the method:
For feeder-free culture plates were coated overnight at 4° C. with either diluted BD Matrigel hES-qualified Matrix (1:30) or Laminin 511-E8 (iMatrix-511; Nippi) at […] (Nakagawa et al., 2014). Cells were dissociated in the presence of ROCKi and plated in t2iL with Gö reduced to 2 μM.
Based on observations with mouse ESC we realised that Gö concentration was critical without buffering by feeders. We therefore reduced Gö to 2 μM and also added ROCKi prior to passaging. […] On both substrates cells could be expanded, albeit more slowly on laminin, and ground state pluripotency factor expression was retained over several passages (FIG. 1L).

Assay [5] concerns reset cells. Kind of assay: Expansion of reset cells in different CH concentrations. Type of assay: cell-based, human. How it is done:
C. Expansion of reset cells in different CH concentrations. Cells were plated at 5×10^4 cells per well and cultured for 4 days in PD03 (1 μM) with LIF, and 0, 1, or 3 μM CH. Y axis indicates cell number (×10^4).
Moderating GSK3 inhibition improves self-renewal of rat ES cells (Chen et al., 2013a; Meek et al., 2013) and we have also observed that combination of Gö6983 with the GSK3 inhibitor CH is unfavourable for mouse ESC propagation (J. Wray and A S, unpublished). We therefore titrated CH. […] Henceforth cells were maintained in titrated 2i with LIF and Gö6983 (t2iL+Gö).

Assay [6] relates to H9 and Shef6 cells. Kind of assay: Resetting by transient transfection with NANOG and KLF2 plasmids. To be noted: pilot experiments. The class given is cell-based, human. An excerpt:
For transient expression and resetting we first generated H9 and Shef6 cells with an EOS-GFP/puro^R reporter (Hotta et al., 2009) introduced in a piggyBac vector. We have observed that in the PB rather than lentiviral vector context this reporter is initially expressed heterogeneously in conventional PSC and progressively silenced, but is re-expressed during resetting. We used NANOG and KLF2 expression constructs driven by the CAG promoter harbouring a blasticidin resistance gene. One well of a 6-well plate was transfected as above with 3 μg of non-linearised NANOG and KLF2 plasmids. Two days later, medium was switched to N2B27 with PD173074 (PD17, 0.5 μM), PD03 (0.5 μM) and hLIF. At day 4, cells were retransfected and on day 8 medium was changed to t2iL+Gö. Puromycin selection (0.5 μg/ml) was applied from day 12 onwards for two passages. Single colonies were picked on passage 4 or 5. […]
We investigated the timespan for resetting by inducing NANOG/KLF2 expression with DOX for finite intervals then assaying colony formation in t2iL+Gö. […] These were indistinguishable in morphology from cultures in which transgenes […] or from reset cells generated previously with inducible transgenes. qRT-PCR and immunostaining confirmed sustained expression of ground state pluripotency factors (FIG. 7E, F). […]

In assay [7] the test system is reset cells. Kind of assay: Colony forming assay (alkaline phosphatase staining) in t2iL+Gö. The class given is cell-based, human. The following applies: transgene-free reset cells in t2iL+Gö plus inhibitor, without ROCKi. How it is done: E. Colony forming assay. Cells maintained in t2iL+Gö were seeded without ROCKi at 2000 cells/well in 12 well dishes in t2iL+Gö plus FGF receptor inhibitor PD17 or TGF-β/activin receptor inhibitor A83-01. Colonies were stained for alkaline phosphatase after 7 days.
G. Colony forming assays on transgene-free reset cells. Cells maintained in t2iL+Gö were seeded at 2000 cells/well in […] in t2iL+Gö plus FGF receptor inhibitor PD17 or TGF-b/activin receptor inhibitor A83-01 and without ROCKi. Colonies were stained for alkaline phosphatase after 7 days.
Reset H9 cells maintained in t2iL+Gö were seeded without ROCKi at 2000 cells/well in 12 well dishes in t2iL+Gö. FGF receptor inhibitor PD173074 or TGF-β/activin receptor inhibitor A83-01 were added. Colonies were stained for alkaline phosphatase after 7 days.
Colony forming assays were carried out on MEF feeder cells by plating 1000 cells per well in 24-well plates, 2000 cells for 12-well plates and 5000 cells for 6-well plates. ROCKi was used for conventional but not reset cells. Activin/TGF β receptor inhibitor A83-01 was used at 0.25 μM where indicated. Plates were fixed and stained for alkaline phosphatase (Sigma-Aldrich, cat. 86R-1KT). Plates were scanned using a CellCelector (Aviso) or cellSens Dimension (Olympus).

The test system of assay [8] is Human ES cells Shef6 and H9, which carry the EOS reporter. Kind of assay: Resetting without transgenes, EOS-GFP reporter (FACS, colonies). Type of assay: cell-based. As to the method: PDL-HDACi comprises mTeSR™-E6 basal medium (Stem Cell Technologies) supplemented with 1 μM PD0325901, human LIF (10 ng/ml, prepared in house) and a
HDAC inhibitor such as valproic acid sodium salt (VPC, 0.5-1 mM, Sigma,) or sodium butyrate (SB, 0.5-1 mM, Sigma).
Optionally a Wnt pathway inhibitor such as XAV939 (2 μM) may be included, constituting PDXL.
Human ES cells Shef6 and H9, which carry the EOS reporter [Hotta], were plated at a density of 50,000 to 100,000 cells per well of a six well tissue culture dish in KSR/FGF medium supplemented with 10 μM ROCK inhibitor (Y-27632). The day after medium was replaced with resetting medium (PDL-HDACi or PDXL-HDACi) for the following three days. Thereafter the cells were maintained in naïve maintenance medium, T2ilGö-FROCKi (FIG. 30).
EOS reporter contains a GFPIresPuro cassette driven by LTR of early transposon and a trimer of mouse Oct4 distal enhancer. The EOS reporter in majority of conventional human ES cells is expressed at low to undetectable level by microscope. More than 80 percent of cells do show low to moderate GFP expression by flow cytometry analysis (FACS) (FIG. 31). The resetting medium induced vast cell death and differentiation three days after. The dome shaped GFP positive colonies appears around Day5 to Day7 and peaked after day10 to day 12 (FIG. 32, FIG. 33, FIG. 34). The colonies can then be passaged in bulk or picked singly using TrypLE™ express. Puromycin selection is applied for one or two passages to exclude differentiated cells if needed. The reset cells expressed elevated naïve state markers, TFCP2L1 and DPPA3 from Day7 during resetting (FIG. 35). Two pools, iS6-N and iS6-E, have been maintained over 15 passages and are karyotypically normal by G-band analysis. They form embryoid body readily in low adhesive 96 well plates and up-regulate differentiation markers (FIG. 36).

As to `N#CC(C#N)=NNc1ccc(OC(F)(F)F)cc1` [FCCP], the “oxygen consumption rate (OCR), reset cells versus conventional PSC” value in assay [1] is given as “greater OCR increase in reset cells than conventional PSC”.

In the case of `Cn1cc(C2=C(c3c4n(c5ccccc35)CCC(CN)C4)C(=O)NC2=O)c2ccccc21` (stereo not shown) [Ro-31-8425], the “use as alternative PKC inhibitor for culture of reset cells” value in assay [2] was “can be used as an alternative to Gö6983”. Take `COc1ccc2c(c1)c(C1=C(c3c[nH]c4ccccc34)C(=O)NC1=O)cn2CCCN(C)C` [Gö6983, 3-[1-[3-(dimethylamino)propyl]-5-methoxy-1H-indol-3-yl]-4-(1H-indol-3-yl)-1H-pyrrole-2,5-dione]: the “maintenance of the reset state in the absence of transgene expression” value in assay [3] is “maintained cell proliferation and compact colony morphology; also recorded: allowed maintenance of compact refractile colonies without Venus expression”. The “undifferentiated colony formation without feeders” value in assay [4] is recorded as “could form undifferentiated colonies on Matrigel or laminin 511-E8”.

With `Cc1c[nH]c(-c2cnc(NCCNc3ccc(C#N)cn3)nc2-c2ccc(Cl)cc2Cl)n1` [CH], the “growth rate and colony morphology” value in assay [5] (1 μM CH, with PD03 (1 μM), LIF and Gö6983) was “restored growth rate while maintaining morphology”; in assay [5] (complete absence of CH), “colony morphology improved in the complete absence of CH, but growth rate was reduced”. In addition, in assay [6], the “effect on the resetting process” value was “appeared inhibitory to the resetting process”. Take `Cc1cccc(-c2nn(C(=S)Nc3ccccc3)cc2-c2ccnc3ccccc23)n1` [A83-01]: the proliferation without differentiation result in assay [7] is recorded as “continued to proliferate without differentiation”. In the case of `CC[C@H]1/C=C/C=C/C[C@@H](C)[C@H](O)[C@@](C)(O)C(=O)[C@@H](C)[C@H](O)[C@@H](C)C(=O)[C@@H](C)[C@H](O)[C@@H](C)/C=C/C(=O)O[C@@H]2[C@H](C)[C@H](CC1)O[C@]1(CC[C@H](C)[C@H](C[C@@H](C)O)O1)[C@H]2C` [oligomycin], in assay [1], the “oxygen consumption rate (OCR), reset cells versus conventional PSC” value is “difference was minimised”. Consider `CCN(CC)CCCCNc1ncc2cc(-c3cc(OC)cc(OC)c3)c(NC(=O)NC(C)(C)C)nc2n1` [PD17], for which the “effect on the resetting process” value in assay [6] is on record as “might favour resetting”. In the case of `CCCC(=O)[O-].[Na+]` [Sodium butyrate, sodium butyrate], the “resetting induction (GFP expression by FACS)” value in assay [8] (7 days after resetting) is “potent resetting inducer”.

Turning to `CCCC(CCC)C(=O)[O-].[Na+]` [VPC, valproic acid sodium salt], the “resetting efficiency (GFP expression by FACS)” value in assay [8] (three days VPC treatment, 7 days after resetting, increase from around 1%) is reported as about 3%. With `Oc1nc(-c2ccc(C(F)(F)F)cc2)nc2c1CSCC2` [XAV939], the “colony yield / resetting efficiency” value in assay [8] (2 μM in transgene-free resetting medium (PDXL)) is recorded as “colony yield may be higher for some cell lines but colonies are also more heterogeneous; also recorded: could significantly increase resetting efficiency”.
